Where two headings read alike, the source gives them in different places.
Tested on: panel of 290 distinct kinases (321 in the larger panel), excluding mutant variants
[1] = asterisk: panel of 321 distinct kinases
[2] = no asterisk: panel of 290 distinct kinases
[3] = kinase selectivity score, 290 distinct kinases, class symbols

SMILES: COCCOc1cc2ncnc(Sc3cccc(NC(=O)Nc4cc(C(C)(CF)CF)on4)c3)c2cc1OC [Ex 230, 1-[5-(1,3-difluoro-2-methylpropan-2-yl)isoxazol-3-yl]-3-{3-[6-methoxy-7-(2-methoxyethoxy)quinazolin-4-ylthio]phenyl}urea]
- S35 [1]: C* (0.20 < C ≦ 0.40)

SMILES: COc1cc2ncnc(Oc3cccc(NC(=O)Nc4cnn(C(C)(C)C)c4)c3)c2cc1OC [Ex 252, 1-(1-tert-butyl-1H-pyrazol-4-yl)-3-(3-(6,7-dimethoxyquinazolin-4-yloxy)phenyl)urea]
- S35 [2]: C (0.20 < C ≦ 0.40)

SMILES: COc1cc2ncnc(Oc3ccc(Cl)c(NC(=O)Nc4cc(C(C)(C)C)on4)c3)c2cc1OC [Ex 299, 1-(5-tert-butylisoxazol-3-yl)-3-(2-chloro-5-(6,7-dimethoxyquinazolin-4-yloxy)phenyl)urea]
- S35 [2]: C (0.20 < C ≦ 0.40)

SMILES: COc1cc2ncnc(Sc3cccc(NC(=O)Nc4cc(C(C)(C)C)nn4-c4cccc(C)c4)c3)c2cc1OC [Ex 286, 1-(3-tert-butyl-1-m-tolyl-1H-pyrazol-5-yl)-3-(3-(6,7-dimethoxyquinazolin-4-ylthio)phenyl)urea]
- S35 [2]: D (D > 0.40)

SMILES: COCCOc1cc2ncnc(Oc3cccc(NC(=O)Nc4cc(C(C)(C)C)nn4C)c3)c2cc1OC [Ex 209, 1-(3-tert-butyl-1-methyl-1H-pyrazol-5-yl)-3-(3-(6-methoxy-7-(2-methoxyethoxy)quinazolin-4-yloxy)phenyl)urea]
- S35 [1]: C* (0.20 < C ≦ 0.40)

SMILES: COc1cc2ncnc(Oc3cccc(NC(=O)Nc4cc(C(C)(C)F)no4)c3)c2cc1O [Ex 258, 1-(3-(2-fluoropropan-2-yl)isoxazol-5-yl)-3-(3-(6-hydroxy-7-methoxyquinazolin-4-yloxy)phenyl)urea]
- S35 [2]: C (0.20 < C ≦ 0.40)

SMILES: COc1cc2ncnc(Oc3cc(NC(=O)Nc4cc(C(F)(F)F)nn4-c4ccccc4)c(F)cc3F)c2cc1OC [Ex 271, 1-(5-(6,7-dimethoxyquinazolin-4-yloxy)-2,4-difluorophenyl)-3-(1-phenyl-3-(trifluoromethyl)-1H-pyrazol-5-yl)urea]
- S35 [2]: D (D > 0.40)

SMILES: COc1cc2ncnc(Oc3cccc(NC(=O)Nc4cc(C(C)(C)C)nn4-c4cccc(C)c4)c3)c2cc1OC [Ex 285, 1-(3-tert-butyl-1-m-tolyl-1H-pyrazol-5-yl)-3-(3-(6,7-dimethoxyquinazolin-4-yloxy)phenyl)urea]
- S35 [2]: D (D > 0.40)

SMILES: CCOc1cc2c(Oc3cccc(NC(=O)Nc4cc(C(F)(F)F)nn4-c4ccccc4)c3)ncnc2cc1OC [Ex 391, 1-(3-(6-ethoxy-7-methoxyquinazolin-4-yloxy)phenyl)-3-(1-phenyl-3-(trifluoromethyl)-1H-pyrazol-5-yl)urea]
- S35 [2]: C (0.20 < C ≦ 0.40)

SMILES: COc1cc2ncnc(Oc3cccc(NC(=O)Nc4cc(C(C)(C)C)nn4-c4ccc(C(C)(C)C)cc4)c3)c2cc1OC [Ex 369, 1-(3-tert-butyl-1-(4-tert-butylphenyl)-1H-pyrazol-5-yl)-3-(3-(6,7-dimethoxyquinazolin-4-yloxy)phenyl)urea]
- S35 [2]: C (0.20 < C ≦ 0.40)

SMILES: COc1cc2c(Oc3cccc(NC(=O)Nc4ccc(OC)c(C(F)(F)F)c4)c3)ncnc2cc1OCCN1CCOCC1 [Ex 250, 1-(4-methoxy-3-(trifluoromethyl)phenyl)-3-(3-(6-methoxy-7-(2-morpholinoethoxy)quinazolin-4-yloxy)phenyl)urea]
- S35 [1]: C* (0.20 < C ≦ 0.40)

SMILES: COc1cc2ncnc(Oc3cccc(NC(=O)Nc4cc(C(C)(C)F)no4)c3F)c2cc1OC [Ex 296, 1-(3-(6,7-dimethoxyquinazolin-4-yloxy)-2-fluorophenyl)-3-(3-(2-fluoropropan-2-yl)isoxazol-5-yl)urea]
- S35 [2]: B (0.10 < B ≦ 0.20)

SMILES: COc1cc2ncnc(Oc3cccc(NC(=O)Nc4cc(C5(C(F)(F)F)CC5)on4)c3)c2cc1OC [Ex 377, 1-(3-(6,7-dimethoxyquinazolin-4-yloxy)phenyl)-3-(5-(1-(trifluoromethyl)cyclopropyl)isoxazol-3-yl)urea]
- S35 [2]: C (0.20 < C ≦ 0.40)

SMILES: COc1cc2ncnc(Oc3cccc(NC(=O)Nc4cc(C(C)(C)F)no4)c3)c2cc1OC [Ex 126, 1-(3-(6,7-dimethoxyquinazolin-4-yloxy)phenyl)-3-(3-(2-fluoropropan-2-yl)isoxazol-5-yl)urea]
- S35 [3]: C (0.20 < C ≦ 0.40)

SMILES: COCCOc1cc2ncnc(Sc3cccc(NC(=O)Nc4ccc(C(F)(F)F)c(OC)c4)c3)c2cc1OC [Ex 233, 1-(3-methoxy-4-(trifluoromethyl)phenyl)-3-(3-(6-methoxy-7-(2-methoxyethoxy)quinazolin-4-ylthio)phenyl)urea]
- S35 [1]: C* (0.20 < C ≦ 0.40)

SMILES: CCOc1cc2ncnc(Oc3cccc(NC(=O)Nc4cc(C(F)(F)F)nn4-c4ccccc4)c3)c2cc1OC [Example 384, 1-(3-(7-ethoxy-6-methoxyquinazolin-4-yloxy)phenyl)-3-(1-phenyl-3-(trifluoromethyl)-1H-pyrazol-5-yl)urea]
- S35 [2]: C (0.20 < C ≦ 0.40)

SMILES: CCOc1cc2ncnc(Sc3cccc(NC(=O)Nc4cc(C(C)(CF)CF)on4)c3)c2cc1OC [Example 388, 1-(5-(1,3-difluoro-2-methylpropan-2-yl)isoxazol-3-yl)-3-(3-(7-ethoxy-6-methoxyquinazolin-4-ylthio)phenyl)urea]
- S35 [2]: C (0.20 < C ≦ 0.40)

SMILES: COc1cc2c(Oc3cccc(NC(=O)Nc4cc(C(C)(C)F)no4)c3)ncnc2cc1O [Ex 257, 1-(3-(2-fluoropropan-2-yl)isoxazol-5-yl)-3-(3-(7-hydroxy-6-methoxyquinazolin-4-yloxy)phenyl)urea]
- S35 [2]: C (0.20 < C ≦ 0.40)

SMILES: COc1cc2ncnc(Oc3cc(NC(=O)Nc4cc(C(C)(C)C)nn4-c4ccccc4)c(F)cc3F)c2cc1OC [Ex 273, 1-(3-tert-butyl-1-phenyl-1H-pyrazol-5-yl)-3-(5-(6,7-dimethoxyquinazolin-4-yloxy)-2,4-difluorophenyl)urea]
- S35 [2]: D (D > 0.40)

SMILES: COc1cc2ncnc(Oc3cccc(NC(=O)Nc4cc(C(C)(C)C)nn4Cc4ccccc4)c3)c2cc1OC [Ex 357, 1-(1-benzyl-3-tert-butyl-1H-pyrazol-5-yl)-3-(3-(6,7-dimethoxyquinazolin-4-yloxy)phenyl)urea]
- S35 [2]: C (0.20 < C ≦ 0.40)

SMILES: COc1cc2ncnc(Oc3cccc(NC(=O)Nc4cc(C(C)(C)C)nn4-c4cnccc4C)c3)c2cc1OC [Ex 303, 1-(3-tert-butyl-1-(4-methylpyridin-3-yl)-1H-pyrazol-5-yl)-3-(3-(6,7-dimethoxyquinazolin-4-yloxy)phenyl)urea]
- S35 [2]: D (D > 0.40)

SMILES: COCCOc1cc2ncnc(Sc3cccc(NC(=O)Nc4cc(C(F)(F)F)n(-c5ccccc5)n4)c3)c2cc1OC [Ex 244, 1-{3-[6-methoxy-7-(2-methoxyethoxy)quinazolin-4-ylthio]phenyl}-3-[1-phenyl-5-(trifluoromethyl)-1H-pyrazol-3-yl]urea]
- S35 [1]: C* (0.20 < C ≦ 0.40)

SMILES: CCOc1cc2c(Oc3cccc(NC(=O)Nc4cc(C(C)(C)F)no4)c3)ncnc2cc1OC [Ex 392, 1-(3-(6-ethoxy-7-methoxyquinazolin-4-yloxy)phenyl)-3-(3-(2-fluoropropan-2-yl)isoxazol-5-yl)urea]
- S35 [2]: C (0.20 < C ≦ 0.40)

SMILES: COc1cc2ncnc(Sc3cccc(NC(=O)Nc4cc(C(C)(C)C)nn4-c4ccc(C(C)(C)C)cc4)c3)c2cc1OC [Ex 370, 1-(3-tert-butyl-1-(4-tert-butylphenyl)-1H-pyrazol-5-yl)-3-(3-(6,7-dimethoxyquinazolin-4-ylthio)phenyl)urea]
- S35 [2]: D (D > 0.40)

SMILES: COc1cc2ncnc(Oc3cccc(NC(=O)Nc4cc(C(C)(C)C)nn4-c4cccc(Cl)c4)c3)c2cc1OC [Ex 363, 1-(3-tert-butyl-1-(3-chlorophenyl)-1H-pyrazol-5-yl)-3-(3-(6,7-dimethoxyquinazolin-4-yloxy)phenyl)urea]
- S35 [2]: D (D > 0.40)

SMILES: COCCOc1cc2ncnc(Sc3cccc(NC(=O)Nc4cc(C(F)(F)F)nn4-c4ccc(C)cc4)c3)c2cc1OC [Ex 243, 1-{3-[6-methoxy-7-(2-methoxyethoxy)quinazolin-4-ylthio]phenyl}-3-[1-p-tolyl-3-(trifluoromethyl)-1H-pyrazol-5-yl]urea]
- S35 [1]: C* (0.20 < C ≦ 0.40)

SMILES: COc1cc2ncnc(Sc3cccc(NC(=O)Nc4cc(C(C)(C)C)nn4-c4ccccc4C(F)(F)F)c3)c2cc1OC [Ex 375, 1-(3-tert-butyl-1-(2-(trifluoromethyl)phenyl)-1H-pyrazol-5-yl)-3-(3-(6,7-dimethoxyquinazolin-4-ylthio)phenyl)urea]
- S35 [2]: C (0.20 < C ≦ 0.40)

SMILES: CCOc1cc2c(Sc3cccc(NC(=O)Nc4cc(C(C)(C)F)no4)c3)ncnc2cc1OC [Ex 394, 1-(3-(6-ethoxy-7-methoxyquinazolin-4-ylthio)phenyl)-3-(3-(2-fluoropropan-2-yl)isoxazol-5-yl)urea]
- S35 [2]: C (0.20 < C ≦ 0.40)

SMILES: COc1cc2ncnc(Sc3cccc(NC(=O)Nc4cc(C(C)(C)C)nn4-c4ccc(Cl)cc4)c3)c2cc1OC [Ex 366, 1-(3-tert-butyl-1-(4-chlorophenyl)-1H-pyrazol-5-yl)-3-(3-(6,7-dimethoxyquinazolin-4-ylthio)phenyl)urea]
- S35 [2]: D (D > 0.40)

SMILES: COCCOc1cc2ncnc(Sc3cccc(NC(=O)Nc4cc(C(C)(C)F)no4)c3)c2cc1OC [Ex 234, 1-(3-(2-fluoropropan-2-yl)isoxazol-5-yl)-3-(3-(6-methoxy-7-(2-methoxyethoxy)quinazolin-4-ylthio)phenyl)urea]
- S35 [1]: C* (0.20 < C ≦ 0.40)

SMILES: COc1cc(NC(=O)Nc2cccc(Sc3ncnc4cc(OC)c(OC)cc34)c2)cc(C(F)(F)F)c1 [Ex 115, 1-(3-(6,7-dimethoxyquinazolin-4-ylthio)phenyl)-3-(3-methoxy-5-(trifluoromethyl)phenyl)urea]
- S35 [3]: C (0.20 < C ≦ 0.40)

SMILES: COCCOc1cc2ncnc(Oc3cccc(NC(=O)Nc4cc(C(F)(F)F)nn4-c4ccc(F)cc4)c3)c2cc1OC [Ex 226, 1-[1-(4-fluorophenyl)-3-(trifluoromethyl)-1H-pyrazol-5-yl]-3-{3-[6-methoxy-7-(2-methoxyethoxy)quinazolin-4-yloxy]phenyl}urea]
- S35 [1]: C* (0.20 < C ≦ 0.40)

SMILES: COc1cc2ncnc(Oc3ccc(F)c(NC(=O)Nc4cc(C(C)(C)C)nn4-c4ccccc4)c3)c2cc1OC [Ex 368, 1-(3-tert-butyl-1-phenyl-1H-pyrazol-5-yl)-3-(5-(6,7-dimethoxyquinazolin-4-yloxy)-2-fluorophenyl)urea]
- S35 [2]: D (D > 0.40)

From US9730937B2, “RAF kinase modulator compounds and methods of use thereof” (AMBIT BIOSCIENCES CORPORATION, priority 2008, dated 2017)
